Results taken from PubChem BioAssay AID179 (DTP/NCI, 2004).
“And” between values parts separate entries of the source, which are not always exact repeats. Equal values may be shown once. The source made the active and inactive calls.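 The calls were made as follows: active = compounds giving half or more protection of infected cells from virus-caused growth loss, again on retest; inactive = the rest.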 Where a SMILES comes first, the peptide text is derived from it.

Test system: CEM cells HIV-1 protection, formazan growth assay
Test: NCI AIDS Antiviral Assay
Conditions: for IC50: measured here: growth of uninfected CEM cells
How it was run: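 Protection of CEM cells against HIV-1 measured as cell growth via soluble formazan read-out, with five concentrations tested on both infected and uninfected cells; failure to protect may reflect toxicity.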

Row | Structure (SMILES) | EC50 [µM] | IC50 | outcome
1 | O=C1c2ccccc2C(=O)c2sc(Nc3ccccc3Cl)nc21 | > 7.94 | > 7.94 µM | –
2 | Cc1cn(CC(=O)NCCCCO)c(=O)[nH]c1=O | > 200 | > 200 µM | –
3 | c1ccc2sc(NCCSSCCNc3nc4ccccc4s3)nc2c1 | > 200 | 23.4 µM | –
4 | COc1cccc(C2ON=C(c3ccccc3)N2C23CC4CC(CC(C4)C2)C3)c1 (stereo not given) | > 200 | 58.9 µM | –
5 | Cn1c(/C=C(\O)c2ccccc2)nc2ccccc21 | > 105 | 83.2 µM | –
6 | Cn1c(=O)c(C(=O)NC(=O)OCc2ccccc2)cn(CCCOC(=O)CCCCCCCCC(=O)OCCCn2cc(C(=O)NC(=O)OCc3ccccc3)c(=O)n(C)c2=O)c1=O | > 21.4 | > 21.4 µM | –
7 | Nc1nc(N)c(N=O)c(=O)[nH]1 | > 200 | > 200 µM | –
8 | COc1cc2ccc(=O)oc2c2c1OC(C)(C)[C@H](OC(=O)C13CCC(C)(C(=O)O1)C3(C)C)[C@@H]2OC(=O)C12CCC(C)(C(=O)O1)C2(C)C (stereo not given in full) | > 200 | > 200 µM | –
9 | CN(C)NC1=NS(=O)(=O)c2cc3c(cc2S1)N(N(C)C)C(=O)c1cc2c(cc1N(N(C)C)C3=O)SC(NN(C)C)=NS2(=O)=O | > 200 | 141 µM | –
10 | CCN(CC)CCNC(=O)C(O)(c1ccccc1)c1ccccc1 | > 200 | > 200 µM | –
11 | COc1c(C)c(C/C=C(\C)CCCCO)c(OC)c2ccccc12 | > 200 | 22.9 µM | –
12 | Cc1ccc(C(=O)O/N=C2/CCCC/C2=C\c2ccccc2)cc1 | – | – | inactive
13 | CC(=O)Nc1nc(NC(C)=O)c(N=O)c(NC(C)=O)n1 | > 200 | 115 µM | –
14 | CSc1n[nH]c(NC(=O)c2ccccc2CS)n1 | > 64.6 | > 64.6 µM | –
15 | COc1ccc(/C(C#N)=C/c2ccc(OC)c(OC)c2)cc1 | > 200 | 64.6 µM and > 33.9 µM | –
16 | COC(=O)C(=O)C(C(=O)C(=O)Nc1cc(Cl)c(Cl)cc1Cl)c1nc2ccc([N+](=O)[O-])cc2[nH]c1=O (stereo not given) | > 457 | 95.5 µM | –
17 | O=C1C2CCCCC2C(=O)N1n1c(Cc2ccccc2)n[nH]c1=O (stereo not given) | > 200 | > 200 µM | –
18 | CN(C)CCn1cnc2ncccc2c1=O | – | – | inactive
19 | CC1S(=O)(=O)OCCCOS1(=O)=O | > 1070 | > 1070 µM | –
20 | COc1cccc2cc(C)c(C(=O)c3ccccc3)nc12 | > 64.6 | > 64.6 µM | –
21 | CC12c3c4cc(Br)cc3Oc3cc(Br)cc(c31)Oc1cc(Br)cc(c12)O4 | > 200 | 33.1 µM | –

Row | Structure (SMILES) | EC50 [µM] | IC50 | outcome
22 | CN=C(NC#N)NCc1ccccc1 | > 1320 | 1200 µM | –
23 | S=C(Nc1c2c(nc3ccccc13)CCCC2)Nc1c2c(nc3ccccc13)CCCC2 | > 200 | > 200 µM | –
24 | O=P(O)(O)CN1CCNCCN(CP(=O)(O)O)CC1 | > 100 | 70.8 µM | –
25 | O=C(CC1(O)C(=O)Nc2c(Cl)ccc(Cl)c21)c1ccco1 (stereo not given) | > 398 | 77.6 µM | –
26 | Cc1ccc(S(=O)(=O)N(CCNC(=O)c2cccc(O)c2O)c2cc3c4c(c2)Oc2cccc5c2C4(C)c2c(cccc2O3)O5)cc1 | > 200 | 10.7 µM | –
27 | COC1C=COC2(C)Oc3c(C)c(O)c4c(O)c(c(C5SCCS5)c(O)c4c3C2=O)NC(=O)/C(C)=C\C=CC(C)C(O)C(C)C(O)C(C)C(OC(C)=O)C1C (stereo not given) | > 200 | 0.646 µM | –
28 | COc1ccc(NC(=S)N/N=C(\c2ccccc2)c2ccccn2)cc1 | > 0.2 | 0.0912 µM | –
29 | NS(=O)(=O)c1cc2c(cc1C(F)(F)F)NCNS2(=O)=O | > 759 | > 759 µM | –
30 | COC(=O)C1=C(C(=O)OC)C2(CCCCCC2=O)OC1=O (stereo not given) | > 851 | 45.7 µM | –
31 | O=C(O)c1ccccc1S | > 200 | > 200 µM | –
32 | CC(C)CC(NC(=O)C(Cc1ccc(O)cc1)NC(=O)CNC(=O)C(N)CCC(=O)O)C(=O)NC(Cc1c[nH]c2ccccc12)C(=O)O (stereo not given) (H-EGYLW-OH; configuration not given here) | – | – | inactive
33 | OC1C2CCC1C1C3C=CC(C3)C21 (stereo not given) | – | – | inactive
34 | CC(=O)CCn1c(=S)sc2ccccc21 | > 200 | 93.3 µM | –
35 | CCOC(=O)C(C)[P+](c1ccccc1)(c1ccccc1)c1ccccc1 (stereo not given) | > 200 | 3.09 µM | –
36 | CC[N+](C)(CC)Cc1ccccc1[N+](=O)[O-] | > 200 | 126 µM | –
37 | C=C(CC[C@@H](O)C(Cl)CO)[Si](C)(C)C (stereo not given in full) | > 110 | > 110 µM | –
38 | O=[N+]([O-])c1ccc(S(=O)(=O)c2ccccc2)c([N+](=O)[O-])c1 | – | – | inactive
39 | CC(Oc1ccc(OCC2CCCCC2)cc1)C(=O)O (stereo not given) | > 468 | 457 µM | –
40 | COc1cc2c(cc1OC)C(=O)/C(=C/c1cc(OC)c(OC)c(OC)c1)C2 | > 200 | 162 µM | –
41 | CC1(C)OC2C=C(COCc3ccccc3)C[C@H]3[C@@H]2C(O1)[C@@H]1OC[C@H]3O1 (stereo not given in full) | – | – | inactive
42 | CC(=Nc1ccccc1C(=O)[O-])c1c([O-])ccc2c(C)cc(=O)oc12.[Cu+2].[OH3+] | > 1.32 | > 1.32 µM | –

Row | Structure (SMILES) | EC50 [µM] | IC50 | outcome
43 | CCOC(=O)c1nc2ccccc2nc1Oc1ccc(OC)cc1 | > 200 | > 200 µM | –
44 | CCOP(=O)(OCC)/C(C#N)=C/c1cccn1C(C)C | 151 | > 200 µM | –
45 | C/C(CN1C(=O)c2ccccc2C1=O)=N\NS(=O)(=O)c1ccc(Cl)cc1 | > 457 | > 457 µM | –
46 | CC(C)(C)OC(=O)C1/C(=C/CBr)CN1C(=O)OC(C)(C)C (stereo not given) | > 200 | 3.98 µM | –
47 | CC(C)(C)NC(NC(C)(C)C)=C(C(Cl)=C(Cl)Cl)[N+](=O)[O-] | > 200 | > 200 µM | –
48 | O=C1CCC2(O)c3ccccc3C2Cc2ccccc21 (stereo not given) | > 200 | > 200 µM | –
49 | O=C(/C=C\c1ccc(/C=C/C(=O)Nc2cccc(C3=NCCCN3)c2)cc1)Nc1cccc(C2=NCCCN2)c1 | > 44.7 | 8.13 µM | –
50 | CC(=O)OC1CC[C@]2(C)C3CC[C@@]4(C)C(CCC4[C@H](C)CCCC(C)C)[C@@H]3CCC2(Br)C1 (stereo not given in full) | – | – | inactive
51 | Cc1cccc(-c2nnc3s/c(=C\c4ccc5c(c4)OCO5)c(=O)n23)c1 | > 27.5 | > 27.5 µM | –
52 | CNC1C(O)C(OC2C(N)CC(N)C(OC3OC(CN)=CCC3N)C2O)OCC1(C)O (stereo not given) | – | – | inactive
53 | COc1cc2oc(=O)cc(C)c2c(OC)c1OC(C)=O | > 200 | > 200 µM | –
54 | CCOC(=O)N1CCc2cc(OC)c(OC)cc2/C1=C\c1ccc(OC)c(OC)c1 | – | – | inactive
55 | CSc1nc(C(N)=O)c(N)c(=O)[nH]1 | > 468 | 126 µM | –
56 | CN1C/C(=C\c2ccc(N(C)C)cc2)C(=O)/C(=C/c2ccc(N(C)C)cc2)C1 | > 100 | > 100 µM | –
57 | COCN1C(=O)[C@@H]2CCCN2C(=O)c2cc(Cl)ccc21 | > 200 | > 200 µM | –
58 | O=[N+]([O-])c1nccn1CC(O)c1ccccc1 (stereo not given) | > 1070 | > 1070 µM | –
59 | O=C1CSC(c2ccccc2O)N1c1ccc(-n2c(-c3ccccc3)nc3ccccc3c2=O)cc1 (stereo not given) | > 200 | 11.2 µM | –
60 | Cn1c(=O)sc2cc(C(=S)N3CCN(c4ccccc4)CC3)ccc21 | 87.1 | 107 µM | –
61 | COc1ccc(C(NS(=O)(=O)c2ccc(C)cc2)c2c(C(CBr)OC)c3ccccc3n2S(=O)(=O)c2ccccc2)cc1OC (stereo not given) | > 151 | 31.6 µM | –
62 | CCOC(=O)C1(Cc2ccc3c(c2)CCC3)Cc2cc3c(cc2C1=O)CCC3 (stereo not given) | > 200 | 23.4 µM | –
